Values quoted from earlier work, collected in patent US20040062802A1, “Maximizing effectiveness of substances used to improve health and well being” (priority 1998, published 2004).
Read-outs that look alike come from different tables or passages of the source.

Tests used:
[1] = mean, N = 24, cited from earlier work; for AUC0-24 h: 1 mg daily 10 days then 2 mg daily 5 days
[2] = tested on: male patients with clinical of BPH; conditions: cited from earlier work; for I-PSS Endpoint / Qmax Endpoint: 24 weeks; for I-PSS Endpoint / Qmax Endpoint / I-PSS Baseline / Qmax Baseline: mean; for I-PSS Baseline / Qmax Baseline: after 2 week placebo run-in
mouse model = conditions: drug received at the beginning of the sleep phase; cited from earlier work
bone marrow cells = conditions: mouse, in vivo; cited from earlier work
[3] = cited from earlier work
HIV = conditions: 200 mg AZT orally every 4 hours for 7 day periods alternating with ddC 0.03 mg/kg orally every 4 hours for 7 day periods; cited from earlier work
[4] = cited from earlier work; remark: listed apart in the source
[5] = 800 mg group versus 400 mg group

COc1cc2nc(N3CCN(C(=O)C4COc5ccccc5O4)CC3)nc(N)c2cc1OC (stereo not shown) [Doxazosin]
AUC0-24 h ([1]; evening dosing (8 pm)): 253.66 ng·h/mL | Cmax ([1]; evening dosing (8 pm)): 15.76 ng/mL | T1/2 ([1]; evening dosing (8 pm)): 18.77 h | Tmax ([1]; evening dosing (8 pm)): 5.60 h | AUC0-24 h ([1]; morning dosing (8 am)): 227.90 ng·h/mL | Cmax ([1]; morning dosing (8 am)): 16.98 ng/mL | T1/2 ([1]; morning dosing (8 am)): 19.52 h | Tmax ([1]; morning dosing (8 am)): 3.46 h | clinical efficacy versus placebo ([2]; at 6 weeks and endpoint): significantly differed from placebo | I-PSS Endpoint ([2]; evening (8 pm) dosing): 11.7 | Qmax Endpoint ([2]; evening (8 pm) dosing): 12.30 mL/s | I-PSS Mean Change ([2]; evening (8 pm) dosing): −6.7 | I-PSS Responders ([2]; evening (8 pm) dosing): 62.6 | Qmax Mean Change ([2]; evening (8 pm) dosing): 1.94 mL/s | Qmax Responders ([2]; evening (8 pm) dosing): 28.4 | I-PSS Baseline ([2]; evening (8 pm) group): 18.2 | Qmax Baseline ([2]; evening (8 pm) group): 10.49 mL/s | I-PSS Endpoint ([2]; morning (8 am) dosing): 11.0 | Qmax Endpoint ([2]; morning (8 am) dosing): 11.84 mL/s | I-PSS Mean Change ([2]; morning (8 am) dosing): −6.9 | I-PSS Responders ([2]; morning (8 am) dosing): 57.4 | Qmax Mean Change ([2]; morning (8 am) dosing): 1.51 mL/s | Qmax Responders ([2]; morning (8 am) dosing): 29.7 | I-PSS Baseline ([2]; morning (8 am) group): 18.5 | Qmax Baseline ([2]; morning (8 am) group): 10.17 mL/s

N.N.O=C([O-])C1(C(=O)[O-])CCC1.[Pt+2] [carboplatin, Carboplatin]
marrow toxicity (mouse model): lowest marrow toxicity | mean survival time (mouse model): longest mean survival time

Cc1cn([C@H]2C[C@H](N=[N+]=[N-])[C@@H](CO)O2)c(=O)[nH]c1=O [AZT]
toxicity (peripheral blood parameters, proportion of bone marrow cells arrested at the S-phase gate) (bone marrow cells): significantly less toxic | duration of the effect of AZT ([3]; 400 mg group versus 800 mg group): significantly longer | AZT withdrawn or dose reduced [3, 5]: reduced more frequently | adverse reaction [3, 5]: more frequently observed | outcome of alternating regimen (HIV): promising treatment regimen

COC(=O)C(c1ccccc1)C1CCCCN1 (stereo not shown) [methylphenidate]
plasma profile ([4]; ADD, conventional 10 mg at 7 am and 10 mg at 12 pm, FIG. I solid line): high dosages of the drug would be present in the body throughout the afternoon and early evening | plasma profile ([4]; narcolepsy, conventional 20 mg at 7 am, 10 mg at 12 pm and 10 mg at 5 pm, FIG. II solid line): lower dosages of the drug are present in the patient during the morning hours
